In US20150011466A1, “APJ Receptor Compounds” (priority 2012, published 2015):
Read-outs that look alike come from different tables or passages of the source. Where a SMILES comes first, the peptide text is derived from it. [ ]: non-standard residue; d: D form. The star is where a group is joined. Palmitoyl = CCCCCCCCCCCCCCCC(=O)*

What was measured:
APJ receptor = target: T1, APJ receptor (Homo sapiens, UniProt P35414); experiment: HTRF cAMP assay, inhibition of NKH477 stimulated cAMP in Human TRex cells expressing APJ upon doxycycline induction (APJ-hTREX); assay type: cell-based; conditions: for percent intrinsic activity at 0.3 µM: read-out: % IA (@ 300 nM); for Ranking: class combining EC50 and % histamine
T1 construct: expressed in transfected cells; host or cells: Human TRex cells (doxycycline-inducible)
T1 sequence (P35414 1-380): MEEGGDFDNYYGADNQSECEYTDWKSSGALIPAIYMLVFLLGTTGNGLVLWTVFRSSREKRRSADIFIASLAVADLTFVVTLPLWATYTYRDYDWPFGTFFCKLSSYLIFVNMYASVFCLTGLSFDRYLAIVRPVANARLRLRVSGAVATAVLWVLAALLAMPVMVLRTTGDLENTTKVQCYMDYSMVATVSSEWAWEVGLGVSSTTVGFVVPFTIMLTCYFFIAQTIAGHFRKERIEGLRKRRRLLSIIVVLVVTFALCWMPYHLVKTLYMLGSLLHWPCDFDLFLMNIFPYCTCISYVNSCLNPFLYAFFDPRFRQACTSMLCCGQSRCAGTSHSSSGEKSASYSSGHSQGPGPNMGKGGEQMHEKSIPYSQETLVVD
Method in brief: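 Cells stimulated with NKH477 and cAMP measured by HTRF competitive immunoassay (cryptate anti-cAMP antibody, d2-labeled cAMP). APJ-hTREX cells induced with […] doxycycline and seeded overnight at 40 k/well.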

[1] = inhibition of NKH477 stimulated cAMP, APJ-hTREX cells, read-out: APJ-hTREX EC50

SMILES: CCCCCCCCCCCCCCCC(=O)N[C@H](C(=O)N[C@H](C(=O)N[C@@H](Cc1ccccc1)C(=O)N[C@@H](CCCNC(=N)N)C(=O)N[C@@H](CO)C(=O)N[C@@H](CO)C(=O)N[C@@H](CCC(=O)O)C(=O)N[C@H](CCCCN)C(=O)N[C@@H](CCCNC(=N)N)C(=O)N[C@@H](CCCNC(=N)N)C(=O)N[C@@H](CO)C(=O)N[C@@H](CC(=O)O)C(=O)N[C@@H](CC(=O)O)C(=O)N[C@H](C(=O)N[C@@H](Cc1ccccc1)C(=O)N[C@H](C(N)=O)[C@@H](C)CC)[C@@H](C)CC)C(C)C)[C@@H](C)O [Compound 39] (Palmitoyl-TVFRSSE[dK]RRSDDIFI-NH2)
- percent intrinsic activity at 0.3 µM (APJ receptor): 27%
- Histimine (% vs. 48/40) (Histimine (% vs. 48/40)): 8%

SMILES: CCCCCCCCCCCCCCCC(=O)N[C@H](C(=O)N[C@H](C(=O)N[C@@H](Cc1ccccc1)C(=O)N[C@@H](CCCNC(=N)N)C(=O)N[C@@H](CO)C(=O)N[C@@H](CO)C(=O)N[C@@H](CCC(=O)O)C(=O)N[C@H](CCCCN)C(=O)N[C@@H](CCCNC(=N)N)C(=O)N[C@@H](CCCNC(=N)N)C(=O)N[C@@H](CO)C(=O)N[C@@H](C)C(=O)N[C@@H](CC(=O)O)C(=O)N[C@@H](CC(=O)O)C(=O)N[C@@H](Cc1ccccc1)C(=O)N[C@H](C(N)=O)[C@@H](C)CC)C(C)C)[C@@H](C)O [Compound 40] (Palmitoyl-TVFRSSE[dK]RRSADDFI-NH2; C-terminus assumed)
- Ranking (APJ receptor): *** (EC50<100 nM and % histamine>35%)
- EC50 (APJ receptor; [1]): 48.2 nM
- percent intrinsic activity at 0.3 µM (APJ receptor): 71%
- Histimine (% vs. 48/40) (Histimine (% vs. 48/40)): 46%

SMILES: CCCCCCCCCCCCCCCC(=O)N[C@H](C(=O)N[C@H](C(=O)N[C@@H](Cc1ccccc1)C(=O)N[C@@H](CCCNC(=N)N)C(=O)N[C@@H](CO)C(=O)N[C@@H](CO)C(=O)N[C@@H](CCC(=O)O)C(=O)N[C@H](CCCCN)C(=O)N[C@@H](CCCNC(=N)N)C(=O)N[C@@H](CCCNC(=N)N)C(=O)N[C@@H](CO)C(=O)N[C@@H](C)C(=O)N[C@@H](CC(=O)O)C(=O)N[C@H](C(=O)N[C@@H](Cc1ccccc1)C(=O)N[C@@H](CC(=O)O)C(N)=O)[C@@H](C)CC)C(C)C)[C@@H](C)O [Compound 41] (Palmitoyl-TVFRSSE[dK]RRSADIFD-NH2)
- percent intrinsic activity at 0.3 µM (APJ receptor): 60%
- Histimine (% vs. 48/40) (Histimine (% vs. 48/40)): 48%

SMILES: CCCCCCCCCCCCCCCC(=O)N[C@H](C(=O)N[C@H](C(=O)N[C@@H](Cc1ccccc1)C(=O)N1CCC[C@H]1C(=O)N[C@@H](CO)C(=O)N[C@@H](CO)C(=O)N[C@@H](CCC(=O)O)C(=O)N[C@H](CCCCN)C(=O)N[C@@H](CCCNC(=N)N)C(=O)N[C@@H](CCCNC(=N)N)C(=O)N[C@@H](CO)C(=O)N[C@@H](C)C(=O)N[C@@H](CC(=O)O)C(=O)N[C@H](C(=O)N[C@@H](Cc1ccccc1)C(=O)N[C@H](C(N)=O)[C@@H](C)CC)[C@@H](C)CC)C(C)C)[C@@H](C)O [Compound 44] (Palmitoyl-TVFPSSE[dK]RRSADIFI-NH2; C-terminus assumed)
- EC50 (APJ receptor): 111 nM
- Ranking (APJ receptor): **** (EC50 101-500 nM and % histamine<35%)
- percent intrinsic activity at 0.3 µM (APJ receptor): 74%
- Histimine (% vs. 48/40) (Histimine (% vs. 48/40)): 7%

SMILES: CCCCCCCCCCCCCCCC(=O)N[C@H](C(=O)N[C@H](C(=O)N[C@@H](Cc1ccccc1)C(=O)N[C@@H](CCCNC(=N)N)C(=O)N[C@@H](CO)C(=O)N[C@@H](CO)C(=O)N1CCC[C@H]1C(=O)N[C@H](CCCCN)C(=O)N[C@@H](CCCNC(=N)N)C(=O)N[C@@H](CCCNC(=N)N)C(=O)N[C@@H](CO)C(=O)N[C@@H](C)C(=O)N[C@@H](CC(=O)O)C(=O)N[C@H](C(=O)N[C@@H](Cc1ccccc1)C(=O)N[C@H](C(N)=O)[C@@H](C)CC)[C@@H](C)CC)C(C)C)[C@@H](C)O [Compound 47] (Palmitoyl-TVFRSSP[dK]RRSADIFI-NH2; C-terminus assumed)
- EC50 (APJ receptor): 13.3 nM
- Ranking (APJ receptor): *** (EC50<100 nM and % histamine>35%)
- percent intrinsic activity at 0.3 µM (APJ receptor): 83%
- Histimine (% vs. 48/40) (Histimine (% vs. 48/40)): 60%

SMILES: CCCCCCCCCCCCCCCC(=O)N[C@H](C(=O)N[C@H](C(=O)N[C@@H](Cc1ccccc1)C(=O)N[C@@H](CCCNC(=N)N)C(=O)N[C@@H](CO)C(=O)N[C@@H](CO)C(=O)N[C@@H](CCC(=O)O)C(=O)N1CCC[C@H]1C(=O)N[C@@H](CCCNC(=N)N)C(=O)N[C@@H](CCCNC(=N)N)C(=O)N[C@@H](CO)C(=O)N[C@@H](C)C(=O)N[C@@H](CC(=O)O)C(=O)N[C@H](C(=O)N[C@@H](Cc1ccccc1)C(=O)N[C@H](C(N)=O)[C@@H](C)CC)[C@@H](C)CC)C(C)C)[C@@H](C)O [Compound 48] (Palmitoyl-TVFRSSEPRRSADIFI-NH2; C-terminus assumed)
- Ranking (APJ receptor): * (EC50>500 nM and % histamine>35%)
- EC50 (APJ receptor; [1]): 3350 nM
- percent intrinsic activity at 0.3 µM (APJ receptor): 78%
- Histimine (% vs. 48/40) (Histimine (% vs. 48/40)): 5%

SMILES: CCCCCCCCCCCCCCCC(=O)N[C@H](C(=O)N[C@H](C(=O)N[C@@H](Cc1ccccc1)C(=O)N[C@@H](CCCNC(=N)N)C(=O)N[C@@H](CO)C(=O)N[C@@H](CO)C(=O)N[C@@H](CCC(=O)O)C(=O)N[C@H](CCCCN)C(=O)N[C@@H](CCCNC(=N)N)C(=O)N1CCC[C@H]1C(=O)N[C@@H](CO)C(=O)N[C@@H](C)C(=O)N[C@@H](CC(=O)O)C(=O)N[C@H](C(=O)N[C@@H](Cc1ccccc1)C(=O)N[C@H](C(N)=O)[C@@H](C)CC)[C@@H](C)CC)C(C)C)[C@@H](C)O [Compound 50] (Palmitoyl-TVFRSSE[dK]RPSADIFI-NH2)
- percent intrinsic activity at 0.3 µM (APJ receptor): 41%
- Histimine (% vs. 48/40) (Histimine (% vs. 48/40)): 16%

SMILES: CCCCCCCCCCCCCCCC(=O)N[C@H](C(=O)N[C@H](C(=O)N[C@@H](Cc1ccccc1)C(=O)N[C@@H](CCCNC(=N)N)C(=O)N[C@@H](CO)C(=O)N[C@@H](CO)C(=O)N[C@@H](CCC(=O)O)C(=O)N[C@H](CCCCN)C(=O)N[C@@H](CCCNC(=N)N)C(=O)N[C@@H](CCCNC(=N)N)C(=O)N1CCC[C@H]1C(=O)N[C@@H](C)C(=O)N[C@@H](CC(=O)O)C(=O)N[C@H](C(=O)N[C@@H](Cc1ccccc1)C(=O)N[C@H](C(N)=O)[C@@H](C)CC)[C@@H](C)CC)C(C)C)[C@@H](C)O [Compound 51] (Palmitoyl-TVFRSSE[dK]RRPADIFI-NH2)
- percent intrinsic activity at 0.3 µM (APJ receptor): 60%
- Histimine (% vs. 48/40) (Histimine (% vs. 48/40)): 63%

SMILES: CCCCCCCCCCCCCCCC(=O)N[C@H](C(=O)N[C@H](C(=O)N[C@@H](Cc1ccccc1)C(=O)N[C@@H](CCCNC(=N)N)C(=O)N[C@@H](CO)C(=O)N[C@@H](CO)C(=O)N[C@@H](CCC(=O)O)C(=O)N[C@H](CCCCN)C(=O)N[C@@H](CCCNC(=N)N)C(=O)N[C@@H](CCCNC(=N)N)C(=O)N[C@@H](CO)C(=O)N1CCC[C@H]1C(=O)N[C@@H](CC(=O)O)C(=O)N[C@H](C(=O)N[C@@H](Cc1ccccc1)C(=O)N[C@H](C(N)=O)[C@@H](C)CC)[C@@H](C)CC)C(C)C)[C@@H](C)O [Compound 52] (Palmitoyl-TVFRSSE[dK]RRSPDIFI-NH2)
- percent intrinsic activity at 0.3 µM (APJ receptor): 45%
- Histimine (% vs. 48/40) (Histimine (% vs. 48/40)): 75%

SMILES: CCCCCCCCCCCCCCCC(=O)N[C@H](C(=O)N[C@H](C(=O)N[C@@H](Cc1ccccc1)C(=O)N[C@@H](CCCNC(=N)N)C(=O)N[C@@H](CO)C(=O)N[C@@H](CO)C(=O)N[C@@H](CCC(=O)O)C(=O)N[C@H](CCCCN)C(=O)N[C@@H](CCCNC(=N)N)C(=O)N[C@@H](CCCNC(=N)N)C(=O)N[C@@H](CO)C(=O)N[C@@H](C)C(=O)N1CCC[C@H]1C(=O)N[C@H](C(=O)N[C@@H](Cc1ccccc1)C(=O)N[C@H](C(N)=O)[C@@H](C)CC)[C@@H](C)CC)C(C)C)[C@@H](C)O [Compound 53] (Palmitoyl-TVFRSSE[dK]RRSAPIFI-NH2)
- percent intrinsic activity at 0.3 µM (APJ receptor): 75%
- Histimine (% vs. 48/40) (Histimine (% vs. 48/40)): 115%

SMILES: CCCCCCCCCCCCCCCC(=O)N[C@H](C(=O)N[C@H](C(=O)N[C@@H](Cc1ccccc1)C(=O)N[C@@H](CCCNC(=N)N)C(=O)N[C@@H](CO)C(=O)N[C@@H](CO)C(=O)N[C@@H](CCC(=O)O)C(=O)N[C@H](CCCCN)C(=O)N[C@@H](CCCNC(=N)N)C(=O)N[C@@H](CCCNC(=N)N)C(=O)N[C@@H](CO)C(=O)N[C@@H](C)C(=O)N[C@@H](CC(=O)O)C(=O)N1CCC[C@H]1C(=O)N[C@@H](Cc1ccccc1)C(=O)N[C@H](C(N)=O)[C@@H](C)CC)C(C)C)[C@@H](C)O [Compound 54] (Palmitoyl-TVFRSSE[dK]RRSADPFI-NH2)
- percent intrinsic activity at 0.3 µM (APJ receptor): 46%
- Histimine (% vs. 48/40) (Histimine (% vs. 48/40)): 60%

SMILES: CCCCCCCCCCCCCCCC(=O)N[C@H](C(=O)N[C@H](C(=O)N[C@@H](Cc1ccccc1)C(=O)N[C@@H](CCCNC(=N)N)C(=O)N[C@@H](CO)C(=O)N[C@@H](CO)C(=O)N[C@@H](CCC(=O)O)C(=O)N[C@H](CCCCN)C(=O)N[C@@H](CCCNC(=N)N)C(=O)N[C@@H](CCCNC(=N)N)C(=O)N[C@@H](CO)C(=O)N[C@@H](C)C(=O)N[C@@H](CC(=O)O)C(=O)N[C@H](C(=O)N1CCC[C@H]1C(=O)N[C@H](C(N)=O)[C@@H](C)CC)[C@@H](C)CC)C(C)C)[C@@H](C)O [Compound 55] (Palmitoyl-TVFRSSE[dK]RRSADIPI-NH2)
- percent intrinsic activity at 0.3 µM (APJ receptor): 43%
- Histimine (% vs. 48/40) (Histimine (% vs. 48/40)): 33%

SMILES: CCCCCCCCCCCCCCCC(=O)N[C@H](C(=O)N[C@H](C(=O)N[C@@H](Cc1ccccc1)C(=O)N[C@@H](CCCNC(=N)N)C(=O)N[C@@H](CO)C(=O)N[C@@H](CO)C(=O)N[C@@H](CCC(=O)O)C(=O)N[C@H](CCCCN)C(=O)N[C@@H](CCCNC(=N)N)C(=O)N[C@@H](CCCNC(=N)N)C(=O)N[C@@H](CO)C(=O)N[C@@H](C)C(=O)N[C@@H](CC(=O)O)C(=O)N[C@H](C(=O)N[C@@H](Cc1ccccc1)C(=O)N1CCC[C@H]1C(N)=O)[C@@H](C)CC)C(C)C)[C@@H](C)O [Compound 56] (Palmitoyl-TVFRSSE[dK]RRSADIFP-NH2; C-terminus assumed)
- Ranking (APJ receptor): *** (EC50<100 nM and % histamine>35%)
- EC50 (APJ receptor; [1]): 15.4 nM
- percent intrinsic activity at 0.3 µM (APJ receptor): 92%
- Histimine (% vs. 48/40) (Histimine (% vs. 48/40)): 50%
